In patent US9637453B2, “3-spirocyclic-6-hydroxamic acid tetralins as HDAC inhibitors” (Forma Therapeutics, Inc., priority 2015, dated 2017):

Legend:
[1] = target: T1, Full length human recombinant HDAC6 (Homo sapiens, UniProt Q9UBN7); experiment: In vitro histone deacetylase assay, enzymatic HDAC6 (electrophoretic mobility shift assay); format: biochemical; details: 1 nM HDAC6; 2 μM peptide substrate FAM-RHKK(Ac)—NH2; 25° C.; 12 concentrations; read-out: HDAC6 Activity Range (IC50)
T1 construct: Full length human recombinant HDAC6 and HDAC11 proteins were expressed in baculoviral system
T1 sequence (Q9UBN7 1-1215): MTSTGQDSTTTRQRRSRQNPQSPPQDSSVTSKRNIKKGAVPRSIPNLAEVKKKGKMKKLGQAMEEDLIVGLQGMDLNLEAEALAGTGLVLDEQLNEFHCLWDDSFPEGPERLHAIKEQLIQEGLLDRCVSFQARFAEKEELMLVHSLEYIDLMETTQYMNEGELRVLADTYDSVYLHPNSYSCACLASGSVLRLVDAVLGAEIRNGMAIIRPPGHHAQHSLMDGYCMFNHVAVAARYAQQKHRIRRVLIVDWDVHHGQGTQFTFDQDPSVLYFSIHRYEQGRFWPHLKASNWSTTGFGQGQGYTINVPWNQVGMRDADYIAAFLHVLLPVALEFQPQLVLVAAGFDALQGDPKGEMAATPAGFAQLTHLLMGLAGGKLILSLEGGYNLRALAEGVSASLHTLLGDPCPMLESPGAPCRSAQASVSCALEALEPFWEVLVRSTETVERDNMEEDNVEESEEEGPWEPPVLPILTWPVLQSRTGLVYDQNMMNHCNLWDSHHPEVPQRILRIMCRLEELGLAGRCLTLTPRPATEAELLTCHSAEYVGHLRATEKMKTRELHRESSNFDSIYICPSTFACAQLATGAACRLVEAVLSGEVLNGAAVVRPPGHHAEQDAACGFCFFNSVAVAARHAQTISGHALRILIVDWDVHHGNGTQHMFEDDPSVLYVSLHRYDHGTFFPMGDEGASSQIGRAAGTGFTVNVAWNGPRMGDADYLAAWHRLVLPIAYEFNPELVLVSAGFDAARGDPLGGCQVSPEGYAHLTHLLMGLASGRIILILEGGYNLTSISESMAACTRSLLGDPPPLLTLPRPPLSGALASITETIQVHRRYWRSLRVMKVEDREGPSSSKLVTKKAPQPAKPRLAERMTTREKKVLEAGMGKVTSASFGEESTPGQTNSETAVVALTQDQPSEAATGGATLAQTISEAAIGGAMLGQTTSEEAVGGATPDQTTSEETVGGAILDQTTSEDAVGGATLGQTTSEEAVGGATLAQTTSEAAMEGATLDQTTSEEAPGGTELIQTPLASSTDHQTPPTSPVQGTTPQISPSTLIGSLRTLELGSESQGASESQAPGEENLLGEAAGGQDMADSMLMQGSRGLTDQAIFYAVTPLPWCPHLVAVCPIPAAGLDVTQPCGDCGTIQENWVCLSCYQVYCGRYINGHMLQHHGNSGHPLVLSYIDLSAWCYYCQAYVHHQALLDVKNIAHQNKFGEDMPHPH
Outline: (§1)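 Baculovirus-expressed full-length enzymes (HDAC6 1 nM, FAM-RHKK(Ac)-NH2; HDAC11 10 nM, FAM-RHKK(tri-fluor-Ac)-NH2), 2 μM substrate, HEPES pH 7.5, 25°C, 12-point 3× dilutions. Product/substrate separated by microfluidic mobility shift after SDS quench; IC50 from 4-parameter fit, reported as +/++/+++ bins.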

[2] = target: T2, Full length human recombinant HDAC11 (Homo sapiens, UniProt Q96DB2); experiment: In vitro histone deacetylase assay, enzymatic HDAC11 (electrophoretic mobility shift assay); format: biochemical; details: 10 nM HDAC11; 2 μM peptide substrate FAM-RHKK(tri-fluor-Ac)—NH2; 25° C.; 12 concentrations; read-out: HDAC11 Activity Range (IC50)
T2 construct: Full length human recombinant HDAC6 and HDAC11 proteins were expressed in baculoviral system
T2 sequence (Q96DB2 1-347): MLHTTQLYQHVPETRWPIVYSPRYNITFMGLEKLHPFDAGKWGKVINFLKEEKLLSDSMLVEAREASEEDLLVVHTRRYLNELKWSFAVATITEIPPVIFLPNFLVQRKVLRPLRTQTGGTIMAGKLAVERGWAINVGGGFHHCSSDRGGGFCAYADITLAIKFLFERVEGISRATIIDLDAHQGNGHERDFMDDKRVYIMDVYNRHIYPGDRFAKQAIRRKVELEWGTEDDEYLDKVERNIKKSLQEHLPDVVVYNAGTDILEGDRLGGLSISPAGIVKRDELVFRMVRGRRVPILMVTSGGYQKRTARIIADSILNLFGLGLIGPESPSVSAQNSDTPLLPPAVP
Outline: as §1

| SMILES | IC50 [1] [nM] | IC50 [2] [nM] |
| --- | --- | --- |
| O=C(NO)c1ccc2c(c1)C[C@@]1(CC2)CCN(Cc2ccc(C(F)(F)F)c(F)c2)C1=O [Compound I-124, (S)-1′-(3-fluoro-4-(trifluoromethyl)benzyl)-N-hydroxy-2′-oxo-3,4-dihydro-1H-spiro[naphthalene-2,3′-pyrrolidine]-7-carboxamide] | ≤ 100 | ≤ 100 |
| COc1ccc(C(=O)N2CCC3(CCc4ccc(C(=O)NO)cc4O3)CC2)cc1 [II-1, N-hydroxy-1′-(4-methoxybenzoyl)spiro[chroman-2,4′-piperidine]-7-carboxamide] | ≤ 100 | > 500 |
| O=C(NO)c1ccc2c(c1)C[C@@]1(CC2)CCN(Cc2cnc(O)s2)C1=O [Compound I-50, (S)—N-hydroxy-1′-((2-hydroxythiazol-5-yl)methyl)-2′-oxo-3,4-dihydro-1H-spiro[naphthalene-2,3′-pyrrolidine]-7-carboxamide] | ≤ 100 | > 500 |
| O=C(NO)c1ccc2c(c1)C[C@]1(CC2)CCN(Cc2cccc(F)c2)C1=O [Compound I-99, (R)-1′-(3-fluorobenzyl)-N-hydroxy-2′-oxo-3,4-dihydro-1H-spiro[naphthalene-2,3′-pyrrolidine]-7-carboxamide] | ≤ 100 | ≤ 100 |
| O=C(NO)c1ccc2c(c1)C[C@]1(CC2)CCN(c2ccccn2)C1=O [Compound I-43, (R)—N-hydroxy-2′-oxo-1′-(pyridin-2-yl)-3,4-dihydro-1H-spiro[naphthalene-2,3′-pyrrolidine]-7-carboxamide] | ≤ 100 | > 500 |
| COc1ccccc1CN1CC[C@@]2(CCc3ccc(C(=O)NO)cc3C2)C1=O [Compound I-65, (S)—N-hydroxy-1′-(2-methoxybenzyl)-2′-oxo-3,4-dihydro-1H-spiro[naphthalene-2,3′-pyrrolidine]-7-carboxamide] | ≤ 100 | > 500 |
| O=C(NO)c1ccc2c(c1)C[C@@]1(CC2)CCN(Cc2cc(Cl)ccc2Cl)C1=O [Compound I-67, (S)-1′-(2,5-dichlorobenzyl)-N-hydroxy-2′-oxo-3,4-dihydro-1H-spiro[naphthalene-2,3′-pyrrolidine]-7-carboxamide] | 100 to 500 | > 500 |
| CN(C)CCCN1CCC2(CCc3ccc(C(=O)NO)cc3C2)C1=O (stereo not shown) [Compound I-25, 1′-(3-(dimethylamino)propyl)-N-hydroxy-2′-oxo-3,4-dihydro-1H-spiro[naphthalene-2,3′-pyrrolidine]-7-carboxamide] | ≤ 100 | > 500 |
